Measurements from ChEMBL document CHEMBL1145252, “Macrolactonization catalyzed by the terminal thioesterase domain of the nonribosomal peptide synthetase responsible for lichenysin biosynthesis” (Bioorg Med Chem Lett, 2005).

How the values were obtained:
[1] = Michaelis-Menten constant for the cyclization of the lipopeptide SNAC by the licC thioesterase
[2] = Michaelis-Menten constant for the hydrolysis of the lipopeptide SNAC by the licC thioesterase
[3] = Catalytic activity for the hydrolysis of the lipopeptide SNAC by the thioesterase
[4] = Catalytic activity for the cyclization of the lipopeptide SNAC by the surfactin thioesterase
[5] = Ratio of Michaelis-Menten constant to that of catalytic activity by the licC thioesterase
[6] = Catalytic activity for the hydrolysis of the lipopeptide SNAC by the licC thioesterase
[7] = Michaelis-Menten constant for the cyclization of the lipopeptide SNAC by the licC thioesterase; nd = not determined.

Km [1] | Km [2] | further results | SMILES
5.1 µM | 4.86 µM | – | CC[C@H](C)[C@H](NC(=O)[C@@H](CC(C)C)NC(=O)[C@H](CC(=O)O)NC(=O)[C@@H](NC(=O)[C@@H](C)NC(=O)[C@H](CC(C)C)NC(=O)[C@H](CCC(N)=O)NC(=O)C[C@@H](C)O)C(C)C)C(=O)SCCNC(C)=O
– | 8.17 µM | – | CC[C@H](C)[C@H](NC(=O)[C@@H](CC(C)C)NC(=O)[C@H](C)NC(=O)[C@@H](NC(=O)[C@@H](CC(C)C)NC(=O)[C@H](CC(C)C)NC(=O)[C@H](CCC(N)=O)NC(=O)C[C@@H](C)O)C(C)C)C(=O)SCCNC(C)=O
15.2 µM | 16.9 µM | – | CC[C@H](C)[C@H](NC(=O)[C@@H](CC(C)C)NC(=O)[C@H](CC(=O)O)NC(=O)[C@@H](NC(=O)[C@@H](CC(C)C)NC(=O)[C@H](C)NC(=O)[C@H](CCC(N)=O)NC(=O)C[C@@H](C)O)C(C)C)C(=O)SCCNC(C)=O
9.35 µM | 8.05 µM | – | CC[C@H](C)[C@H](NC(=O)[C@@H](CC(C)C)NC(=O)[C@H](CC(=O)O)NC(=O)[C@H](C)NC(=O)[C@@H](CC(C)C)NC(=O)[C@H](CC(C)C)NC(=O)[C@H](CCC(N)=O)NC(=O)C[C@@H](C)O)C(=O)SCCNC(C)=O
29.9 µM | 29 µM | – | CC[C@H](C)[C@H](NC(=O)[C@@H](CC(C)C)NC(=O)[C@H](CC(=O)O)NC(=O)[C@@H](NC(=O)[C@@H](CC(C)C)NC(=O)[C@H](CC(C)C)NC(=O)[C@H](C)NC(=O)C[C@@H](C)O)C(C)C)C(=O)SCCNC(C)=O
– | 191 µM | – | CC(=O)NCCSC(=O)[C@H](C)NC(=O)[C@@H](CC(C)C)NC(=O)[C@H](CC(=O)O)NC(=O)[C@@H](NC(=O)[C@@H](CC(C)C)NC(=O)[C@H](CC(C)C)NC(=O)[C@H](CCC(N)=O)NC(=O)C[C@@H](C)O)C(C)C
6.83 µM | 8.13 µM | K cat [3]: 1.57 s⁻¹; K cat [4]: 1.77 s⁻¹ | CC[C@H](C)[C@H](NC(=O)[C@@H](CC(C)C)NC(=O)[C@H](CC(=O)O)NC(=O)[C@@H](NC(=O)[C@@H](CC(C)C)NC(=O)[C@H](CC(C)C)NC(=O)[C@H](CCC(N)=O)NC(=O)C[C@@H](C)O)C(C)C)C(=O)SCCNC(C)=O
– | 9.41 µM | Ratio [5]: 17.3; K cat [6]: 2.71 s⁻¹; Km [7]: Not detected | CC[C@H](C)[C@H](NC(=O)[C@@H](CC(C)C)NC(=O)[C@H](CC(=O)O)NC(=O)[C@@H](NC(=O)[C@@H](CC(C)C)NC(=O)[C@H](CC(C)C)NC(=O)[C@H](CCC(N)=O)NC(=O)CCN)C(C)C)C(=O)SCCNC(C)=O
– | 12 µM | Ratio [5]: 19.5; K cat [6]: 3.89 s⁻¹; Km [7]: Not detected | CC[C@H](C)[C@H](NC(=O)[C@@H](CC(C)C)NC(=O)[C@H](CC(=O)O)NC(=O)[C@@H](NC(=O)[C@@H](CC(C)C)NC(=O)[C@H](CC(C)C)NC(=O)[C@H](CCC(N)=O)NC(=O)C[C@H](C)O)C(C)C)C(=O)SCCNC(C)=O
257 µM | 263 µM | – | CC[C@H](C)[C@H](NC(=O)[C@@H](C)NC(=O)[C@H](CC(=O)O)NC(=O)[C@@H](NC(=O)[C@@H](CC(C)C)NC(=O)[C@H](CC(C)C)NC(=O)[C@H](CCC(N)=O)NC(=O)C[C@@H](C)O)C(C)C)C(=O)SCCNC(C)=O
